Patent US9096494B2, “Arachidonic acid analogs and methods for analgesic treatment using same” (priority 2009, dated 2015)

Assays:
[1] = system: mice; experiment: Writhing assay in mouse (bolus and continuous infusion); type: in vivo; settings: mouse writhing assay
[2] = Analgesic potency comparison with natural EETs and AM404; settings: in vivo
Description: Chemically, it is close structural analog of a set of lipid mediators derived from arachidonic acid that the body uses to control pain.

## CC(=O)Nc1ccc(O)cc1 [acetaminophen, reference compound]
[1]
  dose dependence of the level of analgesia: not dose dependent

## CCCCCC1OC1C/C=C\C/C=C\C/C=C\CCCC(=O)O (centres unmarked) [14,15-EET, 14,15-EET (epoxyeicosatrienoic acid), reference compound]
[2]
  analgesic potency relative to natural EETs: most potent analgesic of the natural EETs
